Laboratory results published in ChEMBL document CHEMBL4376843 (J Med Chem, 2020).

Experiments:
HCT-116 [1] = assay: cells; assay type: functional, cell-based; conditions: Homo sapiens, HCT-116, 72 h
Description: Antiproliferative activity against human HCT116 cells measured after 72 hrs under normoxic condition by MTT assay

WI-38 = assay: Cytotoxicty activity against human WI38 cells measured after 72 hrs by MTT assay; assay type: cell-based; conditions: WI-38, 72 h
HCT-116 [2] = assay: cells; assay type: functional, cell-based; conditions: Homo sapiens, HCT-116, 72 h; remark: listed apart in the source
Description: Antiproliferative activity against human HCT116 cells measured after 72 hrs under CoCl2-induced hypoxic condition by MTT assay

Carbonic anhydrase 4 = Carbonic anhydrase 4 (Homo sapiens, UniProt P22748)
Carbonic anhydrase 7 = Carbonic anhydrase 7 (Homo sapiens, UniProt P43166)
A549 [3] = assay: cells; assay type: functional, cell-based; conditions: Homo sapiens, A549, 72 h
Description: Antiproliferative activity against human A549 cells measured after 72 hrs under normoxic condition by MTT assay

PC-3 [4] = assay: cells; assay type: functional, cell-based; conditions: Homo sapiens, PC-3, 72 h
Description: Antiproliferative activity against human PC3 cells measured after 72 hrs under normoxic condition by MTT assay

Carbonic anhydrase 1 = Carbonic anhydrase 1 (Homo sapiens, UniProt P00915)
Carbonic anhydrase 2 = Carbonic anhydrase 2 (Homo sapiens, UniProt P00918)
A549 [5] = assay: cells; assay type: functional, cell-based; conditions: Homo sapiens, A549, 72 h; remark: listed apart in the source
Description: Antiproliferative activity against human A549 cells measured after 72 hrs under CoCl2-induced hypoxic condition by MTT assay

PC-3 [6] = assay: cells; assay type: functional, cell-based; conditions: Homo sapiens, PC-3, 72 h; remark: listed apart in the source
Description: Antiproliferative activity against human PC3 cells measured after 72 hrs under CoCl2-induced hypoxic condition by MTT assay

Carbonic anhydrase 9 = Carbonic anhydrase 9 (Homo sapiens, UniProt Q16790)
HCT-116 [7] = assay: Induction of apoptosis in human HCT116 cells assessed as downregulation of Bcl-2 expression at normoxic antiproliferative IC50 measured after 48 hrs by ELISA relative to control; assay type: functional

Chain of Carbonic anhydrase 1 (P00915 whole entry): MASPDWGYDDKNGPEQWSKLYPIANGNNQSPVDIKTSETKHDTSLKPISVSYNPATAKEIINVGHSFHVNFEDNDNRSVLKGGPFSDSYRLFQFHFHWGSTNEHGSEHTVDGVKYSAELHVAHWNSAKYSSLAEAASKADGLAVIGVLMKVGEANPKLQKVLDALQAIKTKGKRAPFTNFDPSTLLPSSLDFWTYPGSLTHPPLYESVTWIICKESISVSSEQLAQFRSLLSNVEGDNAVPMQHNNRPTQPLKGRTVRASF
Chain of Carbonic anhydrase 7 (P43166 whole entry): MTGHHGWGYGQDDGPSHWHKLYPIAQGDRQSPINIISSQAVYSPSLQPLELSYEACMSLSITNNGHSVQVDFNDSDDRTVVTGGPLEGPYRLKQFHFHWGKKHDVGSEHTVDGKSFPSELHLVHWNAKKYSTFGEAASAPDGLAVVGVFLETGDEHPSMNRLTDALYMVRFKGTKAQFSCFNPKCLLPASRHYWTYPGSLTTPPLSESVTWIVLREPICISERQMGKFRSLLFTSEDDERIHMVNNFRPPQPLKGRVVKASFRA
Chain of Carbonic anhydrase 4 (P22748 whole entry): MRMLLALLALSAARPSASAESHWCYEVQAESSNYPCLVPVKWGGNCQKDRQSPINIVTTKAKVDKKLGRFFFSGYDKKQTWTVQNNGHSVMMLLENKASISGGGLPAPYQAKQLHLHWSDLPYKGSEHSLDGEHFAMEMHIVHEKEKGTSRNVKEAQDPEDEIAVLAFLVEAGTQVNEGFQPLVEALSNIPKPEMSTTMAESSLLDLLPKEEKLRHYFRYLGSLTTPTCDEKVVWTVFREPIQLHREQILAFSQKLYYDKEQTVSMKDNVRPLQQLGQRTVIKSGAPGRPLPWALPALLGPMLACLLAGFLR

O=C1Nc2ccccc2S(=O)(=O)N1
IC50 (HCT-116 [1]): 1.3 µM | IC50 (WI-38): 39.9 µM | IC50 (HCT-116 [2]): 1.5 µM | Ki (Carbonic anhydrase 4): 0.675 µM | Ki (Carbonic anhydrase 7): 0.466 µM | IC50 (A549 [3]): 3.53 µM | IC50 (PC-3 [4]): 14 µM | Ki (Carbonic anhydrase 1): 0.866 µM | Ki (Carbonic anhydrase 2): 0.15 µM | IC50 (A549 [5]): 2.68 µM | IC50 (PC-3 [6]): 12.2 µM | Ki (Carbonic anhydrase 9): 0.0787 µM | Activity (HCT-116 [7]): 59%

Cc1ccc(C)c2c1NC(=O)NS2(=O)=O
Ki (Carbonic anhydrase 4): 1.43 µM | Ki (Carbonic anhydrase 7): 1.9 µM | Ki (Carbonic anhydrase 1): 2.54 µM | Ki (Carbonic anhydrase 2): 2.19 µM | Ki (Carbonic anhydrase 9): 0.368 µM

Cc1cccc2c1NC(=O)NS2(=O)=O
Ki (Carbonic anhydrase 4): 1.23 µM | Ki (Carbonic anhydrase 7): 0.975 µM | Ki (Carbonic anhydrase 1): 0.969 µM | Ki (Carbonic anhydrase 2): 0.144 µM | Ki (Carbonic anhydrase 9): 0.0639 µM

O=C1Nc2c(C(=O)O)cccc2S(=O)(=O)N1
Ki (Carbonic anhydrase 4): 0.38 µM | Ki (Carbonic anhydrase 7): 2.8 µM | Ki (Carbonic anhydrase 1): 5.78 µM | Ki (Carbonic anhydrase 2): 2.44 µM | Ki (Carbonic anhydrase 9): 0.0912 µM

O=C1Nc2ccc(C(=O)O)cc2S(=O)(=O)N1
Ki (Carbonic anhydrase 4): 0.0761 µM | Ki (Carbonic anhydrase 7): 4.96 µM | Ki (Carbonic anhydrase 1): > 10 µM | Ki (Carbonic anhydrase 2): 6.78 µM | Ki (Carbonic anhydrase 9): 0.0987 µM

O=C1Nc2ccc(O)cc2S(=O)(=O)N1
Ki (Carbonic anhydrase 4): 0.452 µM | Ki (Carbonic anhydrase 7): 2.56 µM | Ki (Carbonic anhydrase 1): 1.89 µM | Ki (Carbonic anhydrase 2): 3.02 µM | Ki (Carbonic anhydrase 9): 0.0881 µM

O=C1NS(=O)(=O)c2cccc3c2N1CC3
Ki (Carbonic anhydrase 4): 3.89 µM | Ki (Carbonic anhydrase 7): 1.28 µM | Ki (Carbonic anhydrase 1): 6.86 µM | Ki (Carbonic anhydrase 2): 1.06 µM | Ki (Carbonic anhydrase 9): 0.273 µM

O=C1Nc2c(F)cccc2S(=O)(=O)N1
Ki (Carbonic anhydrase 4): 0.461 µM | Ki (Carbonic anhydrase 7): 0.126 µM | Ki (Carbonic anhydrase 1): 0.547 µM | Ki (Carbonic anhydrase 2): 0.14 µM | Ki (Carbonic anhydrase 9): 0.0584 µM

CN1C(=O)NS(=O)(=O)c2cc(Cl)ccc21
Ki (Carbonic anhydrase 4): 5.88 µM | Ki (Carbonic anhydrase 7): 3.24 µM | Ki (Carbonic anhydrase 1): > 10 µM | Ki (Carbonic anhydrase 2): 2.34 µM | Ki (Carbonic anhydrase 9): 0.189 µM

O=C1Nc2c(ccc3ccccc23)S(=O)(=O)N1
Ki (Carbonic anhydrase 4): 2.67 µM | Ki (Carbonic anhydrase 7): 3.95 µM | Ki (Carbonic anhydrase 1): 2.07 µM | Ki (Carbonic anhydrase 2): 0.484 µM | Ki (Carbonic anhydrase 9): 0.0602 µM

CN1C(=O)NS(=O)(=O)c2ccccc21
IC50 (HCT-116 [1]): 10.9 µM | IC50 (WI-38): 40.9 µM | IC50 (HCT-116 [2]): 7.13 µM | Ki (Carbonic anhydrase 4): 3.46 µM | Ki (Carbonic anhydrase 7): 7.51 µM | IC50 (A549 [3]): 19.9 µM | IC50 (PC-3 [4]): 23.8 µM | Ki (Carbonic anhydrase 1): 3.41 µM | Ki (Carbonic anhydrase 2): 0.853 µM | IC50 (A549 [5]): 16.3 µM | IC50 (PC-3 [6]): 16.9 µM | Ki (Carbonic anhydrase 9): 0.139 µM

COc1ccc2c(c1)S(=O)(=O)NC(=O)N2
Ki (Carbonic anhydrase 4): 1.94 µM | Ki (Carbonic anhydrase 7): 1.36 µM | Ki (Carbonic anhydrase 1): 3.81 µM | Ki (Carbonic anhydrase 2): 1.92 µM | Ki (Carbonic anhydrase 9): 0.0358 µM

Cc1cc(C)c2c(c1)NC(=O)NS2(=O)=O
Ki (Carbonic anhydrase 4): 2.69 µM | Ki (Carbonic anhydrase 7): 1.79 µM | Ki (Carbonic anhydrase 1): 1.92 µM | Ki (Carbonic anhydrase 2): 2.94 µM | Ki (Carbonic anhydrase 9): 0.408 µM

O=C1Nc2ccc(Br)cc2S(=O)(=O)N1
Ki (Carbonic anhydrase 4): 1.56 µM | Ki (Carbonic anhydrase 7): 0.468 µM | Ki (Carbonic anhydrase 1): 4.4 µM | Ki (Carbonic anhydrase 2): 2.36 µM | Ki (Carbonic anhydrase 9): 0.031 µM

O=C1Nc2c(Br)cccc2S(=O)(=O)N1
Ki (Carbonic anhydrase 4): 0.854 µM | Ki (Carbonic anhydrase 7): 0.62 µM | Ki (Carbonic anhydrase 1): 2.32 µM | Ki (Carbonic anhydrase 2): 0.527 µM | Ki (Carbonic anhydrase 9): 0.0733 µM

O=C1Nc2c(Cl)cccc2S(=O)(=O)N1
IC50 (HCT-116 [1]): 5.26 µM | IC50 (WI-38): 36.6 µM | IC50 (HCT-116 [2]): 7.57 µM | Ki (Carbonic anhydrase 4): 1.03 µM | Ki (Carbonic anhydrase 7): 0.389 µM | IC50 (A549 [3]): 10.9 µM | IC50 (PC-3 [4]): 16.2 µM | Ki (Carbonic anhydrase 1): 0.93 µM | Ki (Carbonic anhydrase 2): 0.685 µM | IC50 (A549 [5]): 7.35 µM | IC50 (PC-3 [6]): 3.52 µM | Ki (Carbonic anhydrase 9): 0.0282 µM

Cc1ccc2c(c1)S(=O)(=O)NC(=O)N2
Ki (Carbonic anhydrase 4): 0.897 µM | Ki (Carbonic anhydrase 7): 0.956 µM | Ki (Carbonic anhydrase 1): 1.07 µM | Ki (Carbonic anhydrase 2): 0.872 µM | Ki (Carbonic anhydrase 9): 0.0458 µM

O=C1Nc2ccc(F)cc2S(=O)(=O)N1
IC50 (HCT-116 [1]): 3.86 µM | IC50 (WI-38): 125 µM | IC50 (HCT-116 [2]): 2.73 µM | Ki (Carbonic anhydrase 4): 0.709 µM | Ki (Carbonic anhydrase 7): 0.436 µM | IC50 (A549 [3]): 18.3 µM | IC50 (PC-3 [4]): 12 µM | Ki (Carbonic anhydrase 1): 1.29 µM | Ki (Carbonic anhydrase 2): 0.534 µM | IC50 (A549 [5]): 15 µM | IC50 (PC-3 [6]): 6.53 µM | Ki (Carbonic anhydrase 9): 0.0191 µM | Activity (HCT-116 [7]): 42%

O=C1Nc2ccc(Cl)cc2S(=O)(=O)N1
Ki (Carbonic anhydrase 4): 1.75 µM | Ki (Carbonic anhydrase 7): 1.18 µM | Ki (Carbonic anhydrase 1): 1.86 µM | Ki (Carbonic anhydrase 2): 1.14 µM | Ki (Carbonic anhydrase 9): 0.0569 µM

Cc1cc(C)c2c(c1)S(=O)(=O)NC(=O)N2
IC50 (HCT-116 [1]): 3.85 µM | IC50 (WI-38): 23.5 µM | IC50 (HCT-116 [2]): 4.18 µM | Ki (Carbonic anhydrase 4): 1.64 µM | Ki (Carbonic anhydrase 7): 0.691 µM | IC50 (A549 [3]): 4.77 µM | IC50 (PC-3 [4]): 6.31 µM | Ki (Carbonic anhydrase 1): 1.27 µM | Ki (Carbonic anhydrase 2): 0.764 µM | IC50 (A549 [5]): 5.74 µM | IC50 (PC-3 [6]): 0.82 µM | Ki (Carbonic anhydrase 9): 0.0258 µM

O=C1NS(=O)(=O)c2ccccc21 [SACCHARIN]
Ki (Carbonic anhydrase 1): > 10 µM
